Like-named read-outs stand apart in the source and are kept apart here.
Key:
MurA (EPT E coli) = target: T1, MurA (EPT E coli) (Escherichia coli, UniProt P0A749); experiment: Kinetic IC50 assay of MurA inhibition (Malachite Green), EPT E coli; format: biochemical
T1 construct: made in house

MurA (EPT Y pestis) = MurA (EPT Y pestis) (Yersinia pestis, UniProt Q8ZB56); experiment: biochemical
[1] = MurA enzyme, E coli, values given as ranges, read-out: IC50 EPT E coli

T1 sequence (P0A749 whole entry): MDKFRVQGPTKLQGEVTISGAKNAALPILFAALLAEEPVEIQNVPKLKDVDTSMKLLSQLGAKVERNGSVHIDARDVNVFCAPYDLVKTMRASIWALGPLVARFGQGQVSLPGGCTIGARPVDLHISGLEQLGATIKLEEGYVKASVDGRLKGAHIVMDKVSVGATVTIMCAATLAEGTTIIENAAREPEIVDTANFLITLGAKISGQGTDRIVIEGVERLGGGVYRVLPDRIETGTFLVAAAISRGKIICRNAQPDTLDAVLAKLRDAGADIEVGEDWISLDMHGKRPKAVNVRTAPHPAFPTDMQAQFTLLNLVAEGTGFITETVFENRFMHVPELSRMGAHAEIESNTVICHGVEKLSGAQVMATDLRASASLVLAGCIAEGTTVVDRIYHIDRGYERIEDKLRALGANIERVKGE
Sequence of MurA (EPT Y pestis) (Q8ZB56 whole entry, looked up): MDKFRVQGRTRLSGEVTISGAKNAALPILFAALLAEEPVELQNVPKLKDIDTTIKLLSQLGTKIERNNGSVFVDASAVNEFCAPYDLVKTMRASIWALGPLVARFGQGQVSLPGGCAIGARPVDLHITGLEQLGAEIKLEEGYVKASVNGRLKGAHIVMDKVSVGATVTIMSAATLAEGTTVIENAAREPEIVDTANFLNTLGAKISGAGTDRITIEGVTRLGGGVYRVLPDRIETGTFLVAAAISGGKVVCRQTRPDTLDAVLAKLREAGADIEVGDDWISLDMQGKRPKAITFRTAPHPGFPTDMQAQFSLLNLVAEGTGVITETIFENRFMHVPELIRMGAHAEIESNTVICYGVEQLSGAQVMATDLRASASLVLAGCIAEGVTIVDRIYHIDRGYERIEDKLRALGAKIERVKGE

SMILES | IC50 (MurA (EPT E coli); [1]) | IC50 (MurA (EPT Y pestis)) | IC50 (MurA (EPT E coli))
O=C(O)C1Nc2ccc(F)cc2C2C=CCC12 (stereo not drawn) [Compound 1] | 5 to 20 µM | 20 to 40 µM | 
O=C(O)C1Nc2ccc(F)c(Cl)c2C2C=CCC12 (stereo not drawn) [Compound 2] | > 200 µM | 10 to 30 µM | 
O=C(O)c1ccc2c(c1)C1C=CCC1C(C(=O)O)N2 (stereo not drawn) [Compound 3] | 2 to 40 µM | 10 to 30 µM | 
CN(C)C(=O)c1cccc2c1NC(C(=O)O)C1CC=CC21 (stereo not drawn) [Compound 4] | > 200 µM | 80 to 120 µM | 
O=C(O)C1Nc2cc(C(F)(F)F)ccc2C2C=CCC12 (stereo not drawn) [Compound 5] | 150 to 200 µM | 10 to 30 µM | 
CC(=O)Nc1ccc2c(c1)C1C=CCC1C(C(=O)O)N2 (stereo not drawn) [Compound 6] | > 200 µM | 50 to 100 µM | 
NC(=O)c1cccc2c1NC(C(=O)O)C1CC=CC21 (stereo not drawn) [Compound 7] | 5 to 20 µM | 20 to 40 µM | 
CCOC(=O)C1Nc2c(C(=O)Nc3ccccc3)cccc2C2C=CCC12 (stereo not drawn) [Compound 8] | > 200 µM |  | 
O=C(Nc1ccccc1)c1cccc2c1NC(C(=O)O)C1CC=CC21 (stereo not drawn) [Compound 9] | > 200 µM |  | 
O=C(O)C1Nc2c(C(=O)N3CCN(c4ccccc4)CC3)cccc2C2C=CCC12 (stereo not drawn) [Compound 10] | > 200 µM |  | 
CCOC(=O)C1Nc2c(C(=O)Oc3ccc(-c4ccc(C#N)cc4)cc3)cccc2C2C=CCC12 (stereo not drawn) [Compound 11] | > 200 µM |  | 
CCOC(=O)C1Nc2c(C(=O)Oc3ccc(-c4cccc(C#N)c4)cc3)cccc2C2C=CCC12 (stereo not drawn) [Compound 12] | > 200 µM |  | 
O=C(Nc1ccc(Cl)cc1)c1cccc2c1NC(C(=O)O)C1CC=CC21 (stereo not drawn) [Compound 13] | > 200 µM |  | 
COc1ccc(NC(=O)c2cccc3c2NC(C(=O)O)C2CC=CC32)cc1 (stereo not drawn) [Compound 14] | > 200 µM |  | 
O=C(Nc1ccc(-c2ccccc2)cc1)c1cccc2c1NC(C(=O)O)C1CC=CC21 (stereo not drawn) [Compound 15] | 50 to 100 µM |  | 
O=C(Oc1ccc(-c2ccccc2)cc1Cl)c1cccc2c1NC(C(=O)O)C1CC=CC21 (stereo not drawn) [Compound 21] | 30 to 50 µM | 5 to 15 µM | 
O=C(Oc1ccc(-c2ccccc2)cc1Cl)c1cccc2c1NC(C(=O)O)C1CC3OC3C21 (stereo not drawn) [Compound 22] | 40 to 60 µM | 10 to 30 µM | 
O=C(Oc1ccc(-c2ccccc2)cc1[N+](=O)[O-])c1cccc2c1NC(C(=O)O)C1CC=CC21 (stereo not drawn) [Compound 23] |  | 10 to 20 µM | 30 to 50 µM
N#Cc1ccc(-c2ccc(OC(=O)c3cccc4c3NC(C(=O)O)C3CC=CC43)cc2)cc1 (stereo not drawn) [Compound 24] | 40 to 60 µM | 20 to 30 µM | 
O=C(O)C1Nc2c(COc3ccccc3)cccc2C2C=CCC12 (stereo not drawn) [Compound 25] | > 200 µM |  | 
CC(C)(C)c1ccc(OCc2cccc3c2NC(C(=O)O)C2CC=CC32)cc1 (stereo not drawn) [Compound 26] | > 200 µM |  | 
O=C(O)C1Nc2c(COc3ccc(Cl)cc3)cccc2C2C=CCC12 (stereo not drawn) [Compound 27] | > 200 µM |  | 
Cc1ccc(OCc2cccc3c2NC(C(=O)O)C2CC=CC32)cc1 (stereo not drawn) [Compound 28] | > 200 µM |  | 

SMILES | IC50 (MurA (EPT E coli); [1]) | IC50 (MurA (EPT Y pestis)) | IC50 (MurA (EPT E coli))
O=C(O)C1Nc2c(OCc3ccccc3)cccc2C2C=CCC12 (stereo not drawn) [Compound 29] | > 200 µM |  | 
Cc1ccc(COc2cccc3c2NC(C(=O)O)C2CC=CC32)cc1 (stereo not drawn) [Compound 30] | > 200 µM |  | 
O=C(Oc1ccc(-c2ccc(O)cc2)cc1)c1cccc2c1NC(C(=O)O)C1CC=CC21 (stereo not drawn) [Compound 31] | 90 to 110 µM | 20 to 40 µM | 
COc1ccc(-c2ccc(OC(=O)c3cccc4c3NC(C(=O)O)C3CC=CC43)cc2)cc1 (stereo not drawn) [Compound 32] | 40 to 60 µM | 15 to 25 µM | 
O=C(Oc1ccc(-c2ccc([N+](=O)[O-])cc2)cc1)c1cccc2c1NC(C(=O)O)C1CC=CC21 (stereo not drawn) [Compound 33] | 40 to 60 µM | 10 to 20 µM | 
O=C(Oc1ccc(-c2ccc(Cl)cc2)cc1)c1cccc2c1NC(C(=O)O)C1CC=CC21 (stereo not drawn) [Compound 34] | 60 to 80 µM | 1 to 10 µM | 
CN(C)C(=O)c1ccc(-c2ccc(OC(=O)c3cccc4c3NC(C(=O)O)C3CC=CC43)cc2)cc1 (stereo not drawn) [Compound 35] | > 200 µM |  | 
O=C(O)C1Nc2c(COc3ccc(-c4ccccc4)cc3)cccc2C2C=CCC12 (stereo not drawn) [Compound 36] | > 200 µM |  | 
N#Cc1cc(COc2cccc3c2NC(C(=O)O)C2CC=CC32)ccc1-c1ccccc1 (stereo not drawn) [Compound 37] | > 200 µM |  | 
COc1ccc(-c2ccc(COc3cccc4c3NC(C(=O)O)C3CC=CC43)cc2)cc1 (stereo not drawn) [Compound 38] | > 200 µM |  | 
O=C(Oc1ccc(Oc2ccccc2)cc1)c1cccc2c1NC(C(=O)O)C1CC=CC21 (stereo not drawn) [Compound 39] | 50 to 70 µM | 10 to 30 µM | 
O=C(Oc1ccc(-c2ccccc2)cc1)c1cc(Cl)cc2c1NC(C(=O)O)C1CC=CC21 (stereo not drawn) [Compound 40] | 30 to 50 µM | 5 to 15 µM | 
O=C(c1ccccc1)c1ccc(OC(=O)c2cccc3c2NC(C(=O)O)C2CC=CC32)cc1 (stereo not drawn) [Compound 41] | 120 to 140 µM | 70 to 80 µM | 
CC(=O)N(c1ccccc1)c1ccc(OC(=O)c2cccc3c2NC(C(=O)O)C2CC=CC32)cc1 (stereo not drawn) [Compound 42] | 40 to 60 µM |  | 
O=C(Oc1ccccc1)c1cccc2c1NC(C(=O)O)C1CC=CC21 (stereo not drawn) [Compound 43] | 30 to 50 µM |  | 
Cc1ccc(OC(=O)c2cccc3c2NC(C(=O)O)C2CC=CC32)cc1 (stereo not drawn) [Compound 44] | 1 to 10 µM | 1 to 5 µM | 
O=C(Oc1ccc(Cl)cc1)c1cccc2c1NC(C(=O)O)C1CC=CC21 (stereo not drawn) [Compound 45] | 160 to 180 µM |  | 
COc1ccc(OC(=O)c2cccc3c2NC(C(=O)O)C2CC=CC32)cc1 (stereo not drawn) [Compound 46] | 1 to 10 µM |  | 
CC(C)(C)c1ccc(OC(=O)c2cccc3c2NC(C(=O)O)C2CC=CC32)cc1 (stereo not drawn) [Compound 47] | 10 to 20 µM | 5 to 15 µM | 
O=C(Oc1ccc([N+](=O)[O-])cc1)c1cccc2c1NC(C(=O)O)C1CC=CC21 (stereo not drawn) [Compound 48] |  |  | 180 to 200 µM
O=C(Oc1cc(Cl)cc(Cl)c1)c1cccc2c1NC(C(=O)O)C1CC=CC21 (stereo not drawn) [Compound 49] | 30 to 50 µM | 1 to 10 µM | 
COc1ccc(-c2ccc(N(Cc3cccc4c3NC(C(=O)O)C3CC=CC43)C(C)=O)cc2)cc1 (stereo not drawn) [Compound 50] | 150 to 170 µM |  | 
